# Measurements from article PMC5698418 (Nature Communications, 2017).
# Structures can show the parent of a compound that is named as a salt. Where two headings read alike, the source gives them in different places. Non-standard residues stand in square brackets, D forms with d. Residues, ends and D or L forms follow the SMILES beside them. αMeP = C[C@@]1(C(=O)O)CCCN1
# Test system: BDNF-induced nuclear Arc expression in primary cortical neurons
# Experiment: Chemogenomic screen: high-content image-based assay of BDNF-induced nuclear Arc expression (96-well)
# Assay type: cell-based, mouse
# Method in brief: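 DIV13 mouse primary cortical neurons (30,000 cells/well) are treated with compound at 16.7 µM and BDNF, in three biological replicates. Arc and acetyl-H3K9 are immunostained and imaged at ×40, and nuclear Arc signal is quantified automatically using acetyl-H3K9 as the nuclear mask.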
# [1] = nuclear Arc-positive cells relative to DMSO control (BDNF), negative = decrease
# [2] = nuclear Arc-positive cells relative to DMSO + BDNF control, negative values = decrease
# [3] = BDNF-induced nuclear Arc expression, primary cortical neurons, chemogenomic screen
# [4] = chemogenomic (SMART) screen, BDNF-induced nuclear Arc expression, primary cortical neurons, BDNF control 19.5
SMILES,Percentage of cell with nuclear Arc immunostaining above 2σ threshold [%],Fold-change — Normalized to DMSO control (BDNF) [2] [fold],Percentage of cell with nuclear Arc immunostaining above 2σ threshold [4] [%],other results
COc1ccccc1C1(O)CCN(CCCn2c3ccccc3c3ccccc32)CC1 [NNC 05-2090],0.0,–,–,Fold-change — Normalized to DMSO control (BDNF) [1]: 0.0 fold
Cl.O=C(O)C1=CCCN(CCON=C(c2ccccc2)c2ccccc2)C1 [NNC 711 hydrochloride],21.4,1.1,–,–
C[C@@]1(C(=O)N[C@@H](CCC(=O)O)C(=O)O)CCCN1C(=O)CN [NNZ-2566] (H-Gly-[αMeP]-Glu-OH),–,–,–,Percentage of cell with nuclear Arc immunostaining above 2σ threshold [3]: 6.7%; Fold-change — Normalized to DMSO control (BDNF) [1]: -2.9 fold
Cc1cccc(C)c1NC(=O)CN1CCCC1=O [Nefiracetam],–,1.0,19.7,–
O=C(CCNNC(=O)c1ccncc1)NCc1ccccc1 [Nialamide],–,1.5,29.9,–
CO[C@]12C[C@@H](COC(=O)c3cncc(Br)c3)CN(C)[C@@H]1Cc1cn(C)c3cccc2c13 [Nicergoline],–,–,–,Percentage of cell with nuclear Arc immunostaining above 2σ threshold [3]: 6.1%
O=C(O)C1CCCNC1 (centres unmarked) [Nipecotic acid],26.3,1.4,–,–
CNCCC(Oc1ccccc1OC)c1ccccc1 (centres unmarked) [Nisoxetine hydrochloride],19.1,–,–,–
CC(C)C[C@H](NC(=O)[C@H](CCCCN)NC(=O)[C@H](CCCN=C(N)N)NC(=O)[C@H](C)NC(=O)[C@H](CO)NC(=O)[C@H](CCCCN)NC(=O)[C@H](CCCN=C(N)N)NC(=O)[C@H](C)NC(=O)CNC(=O)[C@@H](NC(=O)[C@H](Cc1ccccc1)NC(=O)CNC(=O)CNC(=O)[C@@H](N)Cc1ccccc1)[C@@H](C)O)C(=O)N[C@@H](C)C(=O)N[C@@H](CC(N)=O)C(=O)N[C@@H](CCC(N)=O)C(=O)O [Nociceptin],21.6,1.1,–,–
Cc1cc2c(s1)Nc1ccccc1N=C2N1CCN(C)CC1 [Olanzapine],19.4,–,–,–
Cc1nccn1CC1CCc2c(c3ccccc3n2C)C1=O (centres unmarked) [Ondansetron],–,1.9,37.6,–
C[C@]12COC(=O)C[C@@H]1CC[C@@H]1[C@@H]2CC[C@@]2(C)[C@H]1CC[C@]2(C)O [Oxandrolone],33.5,1.7,–,–
NC(=O)N1c2ccccc2CC(=O)c2ccccc21 [Oxcarbazepine],–,1.2,23.6,–
NC(=O)CN1CC(O)CC1=O (centres unmarked) [Oxiracetam],–,2.1,41.5,–
OC(CNc1ccccc1)Cn1c2ccc(Br)cc2c2cc(Br)ccc21 (centres unmarked) [P7C3],1.7,–,–,Fold-change — Normalized to DMSO control (BDNF) [1]: -11.2 fold
CC(C)S(=O)(=O)N[C@H]1CCOC[C@@H]1c1ccc(-c2ccc(C#N)s2)cc1 [PF 4778574],35.9,1.8,–,–
Cc1nc2n(c(=O)c1CCN1CCC(c3noc4cc(F)ccc34)CC1)CCCC2O (centres unmarked) [Paliperidone],–,–,15.2,–
COc1cc2c(cc1OC)-c1cc3ccc(OC)c(OC)c3c[n+]1CC2 [Palmatine],1.1,–,–,Fold-change — Normalized to DMSO control (BDNF) [1]: -17.5 fold
N#Cc1ccccc1-c1cc(-c2ccccn2)cn(-c2ccccc2)c1=O [Perampanel],12.4,–,–,–
O=C1[C@H]2CCCC[C@H]2C(=O)N1CCCCN1CCN(c2nsc3ccccc23)CC1 [Perospirone],–,–,17.9,–
OCCN1CCN(CCCN2c3ccccc3Sc3ccc(Cl)cc32)CC1 [Perphenazine],–,–,–,Percentage of cell with nuclear Arc immunostaining above 2σ threshold [3]: 1.0%
